Series [1] concerns collagen induced arthritis in rats. Kind of series: Rat arthritis model induced by type II collagen (CIA), paw volume. It is filed as in vivo. Particulars: CIA Lewis rats. The method, then:
Example 9 Therapeutic Effect of the Compound of the Present Invention on a Rat Arthritis Model Induced by Type II Collagen
An appropriate amount of bovine type II collagen (CII, Chondrex (Redmond, Wash., USA), Cat #20021) was weighed and dissolved in 0.1 mole of acetic acid (SPGC Sinopharm Chemical Reagent Co., Ltd (Shanghai, P. R. China), Cat #: 10000218.), which was formulated into a solution with a concentration of 6 mg/mL, stirred at 4° C. overnight, and added with an equal volume of Freund's incomplete adjuvant (Sigma-Aldrich. (St. Louis, Mo., USA), Cat #: SLBW0366.), fully emulsified to prepare an emulsion with a CII concentration of 3 mg/mL.
Female Lewis rats were purchased from Beijing Vital River Laboratory Animal Technology Co., Ltd (certificate number 1100111911070522, initial body weight of 110-130 grams), and 3 rats were randomly selected as normal group, and the remaining rats were grouped according to the following table. In the first immunization on day 0, the rats except that in the normal group were anesthetized with isoflurane (Hebei Yipin Pharmaceutical Co., Ltd., Lot: C002170601.), and then disinfected with 75% alcohol. 0.2 mL of emulsion was injected intradermally at the base of the tail thereof. A second challenge was carried out on day 7, and 0.2 mL of emulsion was intradermally injected using the same method.
The paw volume was measured on day 8 after immunization, and the left and right hind paw volumes (V) were measured every day after the paw volume increase was detected.
The average arthrosis paw volume of each animal before administration was used as the baseline (or considered 100% inhibition of inflammation). The averaged paw swelling (APS) of each animal is calculated according to the following formula, wherein, APVd1 is the average paw volume of the animal administered on day 1, and APVdt is the average paw volume of the animal administered on day t: The averaged paw swelling APSdt=(APVdt−APVd1)
ED50 is calculated by XLfit software according to the AUC inhibition ratio of the area under the curve of the average paw volume change. The selected model is “log (inhibitor) vs. response−Variable slope”: […]

In series [2] the test system is TMD8 subcutaneous xenograft (human diffuse large B-cell lymphoma cells). Kind of series: In vivo efficacy in TMD8 subcutaneous xenograft model in nude mice. Particulars: for Number of animals with CR (Day 21): 8 animals per group; for Tumor volume (mm^3) ± SD Day 0: Day 0, before drug administration; for TGI (%) / Tumor volume (mm^3) ± SD Day 21: Day 21; for RBW (%) (Day 21): relative body weight; for Tumor growth inhibition (TGI %): oral gavage once a day, 21 days after treatment, vs vehicle control. The method, then:
Example 7 Evaluation of In Vivo Efficacy of the Compound of the Present Invention in TMD8 Subcutaneous Xenograft Model
Objects: To investigate the anti-tumor activity of compound 19 in TMD8 subcutaneous xenograft model in nude mice.
Methods: Human diffuse large B-cell lymphoma cells TMD8 (acquired under license from Tokyo Medical and Dental University) were cultured in RPMI1640 medium containing 10% fetal bovine serum. 1×10^7 tumor cells suspended in RPMI1640 medium mixed well with Matrigel (purchased from Corning, USA) at 1:1 were implanted subcutaneously on the right flank of each male Balb/c nude mouse (Shanghai Lingchang Biotechnology Co., Ltd.), pretreated with cyclophosphamide (at a dose of 200 mg/kg, intraperitoneal injection 24 h before cell inoculation). […] All drugs were administered by oral gavage, once a day, and the vehicle control group was administered orally with 0.5% hydroxypropyl methylcellulose solution (pH=3).
Tumor volumes (tumor volume=0.5×long diameter×short diameter^2) and body weights of the mice were measured regularly. The tumor volume change and body weight were statistically analyzed, with p<0.05 considered statistically significant, and p<0.01 as extremely statistically significant.
The anti-tumor activity was evaluated by tumor growth inhibition. Tumor growth inhibition (TGI %)=100%×(1−(TVDt (treatment group)−TVD0 (treatment group))/(TVDt (control group)−TVD0 (control group))) Relative body weight (RBW %)=BWDt/BWD0×100%
wherein, TVD0 represents the tumor volume obtained at first measurement, namely, the tumor volume before drug administration, and TVDt represents the tumor volume on the day of measurement; BWD0 represents the body weight of the animal obtained at first measurement, namely, the body weight of the animal before drug administration; BWDt represents the body weight of the animal on the day of measurement.

Series [3] can be described thus: Study on in vivo pharmacokinetics in mice. As to conditions: 10 mg/kg. An excerpt:
Example 6 Study on In Vivo Pharmacokinetics in Mice
Solutol HS15 was purchased from BASF, Germany, ethanol (anhydrous) was purchased from Nanjing Chemical Reagent Co., Ltd., physiological saline was purchased from Huayu (Wuxi) Pharmaceutical Co., Ltd., dimethyl sulfoxide (DMSO) and sodium carboxymethyl cellulose 800-1200 (CMC-Na) were purchased from Sinopharm Chemical Reagent Co., Ltd.
Preparation of ethanol/Solutol mixed solution (1:1, v/v): taking an appropriate amount of Solutol HS15 in a centrifuge tube and placing in a 37° C. water bath until dissolved, placing on the bench top to room temperature, taking 1 mL of Solutol in a centrifuge tube containing 1 mL of ethanol and mixing well to obtain the mixed solution.
Taking an appropriate amount of stock solution and placing in a blank centrifuge tube, adding an appropriate amount of ethanol/Solutol mixed solution prepared in advance, vortexing, then adding an appropriate amount of physiological saline, and mixing well until a transparent liquid.
3. Administration to Animals and Sample Collection:
Male ICR mice were purchased from Shanghai Lingchang Biotechnology Co., Ltd. 18 mice were randomly divided into intravenous administration group and intragastric administration group. The mice were fasted overnight before administration. The mice were withheld food but allowed to access water freely within 4 hours after administration, and allowed to freely access food and water after 4 hours. After anesthesia with isoflurane, blood was collected from the retroorbital venous plexus and placing in an centrifuge tube containing anticoagulant, and the centrifuge tube was stored in an box containing wet ice until the plasma was centrifuged.
The plasma samples were pre-treated and then analyzed by liquid chromatography-tandem mass spectrometry (LC-MS/MS), the instrument model was API5500. The analytical chromatographic column was Waters XSELECT HSS T3 C18 column (50×2.1 mm, 2.5 μm). In the mobile phases, deionized water containing 0.1% formic acid and 0.1% acetonitrile was used as the aqueous phase and acetonitrile containing 0.1% formic acid was used as the organic phase. The concentrations of the compound in the samples were determined as follows. Firstly, a standard curve was established, and the peak area ratios of the compound 19 to the internal standard in the standard curve were used as indexes. The theoretical concentrations of compound 19 and the peak area ratios of compound 19 to the internal standard were fitted with a quadratic regression equation to obtain the regression equation. The sample concentrations were calculated by measuring the peak area ratio of the compound of the test sample to the internal standard according to the standard curve.

The mark [4] stands for this setting: oral QD, from AUC inhibition ratio of average paw volume change.
The mark [5] stands for this setting: 10 mg/kg oral gavage once a day.
The mark [6] stands for this setting: 30 mg/kg oral gavage once a day.
Setting [7] is: male ICR mice, oral (intragastric) administration, plasma.
Setting [8] is: male ICR mice, oral (intragastric) administration, plasma, 24 h.
Where [9] appears, read: mouse, male ICR mice, oral (intragastric) administration, plasma.
Setting [10] is: mouse, male ICR mice, oral (intragastric) administration, plasma, read-out: Cmax.

Like-named read-outs stand apart in the source and are kept apart here.

The record followed here is US11478474B2, “2-(3′-(hydroxymethyl)-1-methyl-5-((5-(2-methyl-4-(oxetan-3-yl)piperazin-1-yl)pyridin-2-yl)amino)-6-oxo-1,6-dihydro-[3,4′-bipyridin]-2′-yl)-7,7-dimethyl-7,8-dihydro-2H-cyclopenta[4,5]pyrrolo[1,2-a]pyrazin-1(6H)-one as a BTK inhibitor” (HUTCHISON MEDIPHARMA LIMITED, priority 2020, dated 2022).

On to `C[C@H]1CN(C2COC2)CCN1c1ccc(Nc2cc(-c3ccnc(-n4ccn5c6c(cc5c4=O)CC(C)(C)C6)c3CO)cn(C)c2=O)nc1` [Compound 19], for which the “inhibition ratio of area under the curve (paw swelling)” value came to 58.8% in series [1] (0.06 mg/kg QD oral); 91.3% in series [1] (0.25 mg/kg QD oral); 95.9% in series [1] (1 mg/kg QD oral); 93.2% in series [1] (4 mg/kg QD oral); 97.5% in series [1] (16 mg/kg QD oral). Moreover, the ED50 (usually the dose that gives a 50% effect, or the effect in half of the subjects) in series [1] (setting [4]) is reported as under 0.06 mg/kg/day. Moreover, the ED90 in series [1] (setting [4]) came out at 0.26 mg/kg. The compound also yielded a minimum effective dose in series [1] (oral QD, paw swelling) of 0.06 mg/kg/day. In addition, the figures for the “Number of animals with CR (Day 21)” value in series [2] (setting [5]) and in series [2] (setting [6]) were 0 and 8, respectively. The “Tumor volume (mm^3) ± SD Day 0” value in series [2] (setting [5]) was determined as 400 ± 41 mm^3; in series [2] (setting [6]) it was 396 ± 47 mm^3. Also, the “TGI (%)” value is recorded as 76.5% in series [2] (setting [5]) and 114% in series [2] (setting [6]). Also, the “Tumor volume (mm^3) ± SD Day 21” value in series [2] (setting [5]) stood at 1065 mm^3; in series [2] (setting [6]) it was 0 mm^3. Further, the “RBW (%) (Day 21)” value in series [2] (setting [5]) worked out at 111.0%; in series [2] (setting [6]), 109.8%. In addition, the entries for the “Tumor growth inhibition (TGI %)” value in series [2] (10 mg/kg) and in series [2] (30 mg/kg) were 76.5% and 114%, respectively. Further, the “mice with complete tumor regression (CR)” value in series [2] (30 mg/kg, oral once a day, Day 21, 8 animals per group) is 8 mice. In addition, the Cmax (as a rule, the highest concentration seen after dosing) in series [3] (setting [7]) was determined as 3807 ng/mL; in series [3] (setting [10]) it was 3810 ng/mL. For the same compound, in series [3] (male ICR mice, oral (intragastric) administration, plasma, 8 h), the “C8 h (plasma concentration at 8 h)” value was determined as 555 ng/mL. Further, the “C24 h (plasma concentration at 24 h)” value in series [3] (setting [8]) was 8.5 ng/mL. In series [3] (mice, oral administration), the “plasma exposure (AUC0-∞) relative to the reference GDC-0853” value is “about 1.7 times”. Moreover, the “plasma concentration at 8 h relative to GDC-0853” value in series [3] (mice, oral administration, 8 h) was “about 3.9 folds”. In addition, the AUC(0-inf) (as a rule, the area under the concentration-time curve extrapolated to infinity) in series [3] (setting [9]) was 17800 ng·h/mL. Moreover, in series [3] (setting [9]), the half-life – broadly, the time needed for the level to fall by half in the phase considered – was 2.7 h.
`C[C@H]1CN(C2COC2)CCN1c1ccc(Nc2cc(-c3ccnc(N4CCn5c(cc6c5CC(C)(C)C6)C4=O)c3CO)cn(C)c2=O)nc1` [GDC-0853, fenebrutinib, reference compound]: the “inhibition ratio of area under the curve (paw swelling)” value in series [1] (4 mg/kg QD oral) turned out to be 87.1%. In addition, the “paw volume compared with the vehicle control group” value in series [1] (4 mg/kg QD oral, p<0.01) is “significantly reduced”. Also, in series [2] (setting [5]), the “Number of animals with CR (Day 21)” value was 0, the “Tumor volume (mm^3) ± SD Day 0” value was found to be 397 ± 46 mm^3, the “TGI (%)” value is on record as −12.8% and the “Tumor volume (mm^3) ± SD Day 21” value is listed as 3585 ± 494 mm^3. Besides, the “RBW (%) (Day 21)” value in series [2] (setting [5]) was found to be 115.5%. Besides, the “Tumor growth inhibition (TGI %)” value in series [2] (10 mg/kg) is listed as −12.8%. In series [3] (setting [7]), this compound had a Cmax of 4063 ng/mL. The “C24 h (plasma concentration at 24 h)” value in series [3] (setting [8]) is under 2.4 ng/mL. In series [3] (setting [9]), this compound gave an AUC(0-inf) of 10300 ng·h/mL and a half-life of 1.5 h. Further, in series [3] (mouse, male ICR mice, oral (intragastric) administration, plasma, 8 h, read-out: C8 h (plasma concentration at 8 h)), the concentration at 8 h stood at 143 ng/mL. In series [3] (mouse, male ICR mice, oral (intragastric) administration, plasma, 24 h, read-out: C24 h (plasma concentration at 24 h)), the concentration at 24 h is under 2.4 ng/mL. The Cmax in series [3] (setting [10]) was 4060 ng/mL.
